Measured values as given in BindingDB's records for doi:10.1021/jm960799i (Dupont Pharmaceuticals, 1997).
Counter-ions that a name gives are not always drawn.

Biological target: Integrin alpha-IIb/beta-3 (Homo sapiens, UniProt P08514+P05106)
Assay: In vitro inhibition of ADP-induced platelet aggregation in human platelet rich plasma (hPRP)

Integrin alpha-IIb/beta-3, sequence (P05106 27-788 limits assumed): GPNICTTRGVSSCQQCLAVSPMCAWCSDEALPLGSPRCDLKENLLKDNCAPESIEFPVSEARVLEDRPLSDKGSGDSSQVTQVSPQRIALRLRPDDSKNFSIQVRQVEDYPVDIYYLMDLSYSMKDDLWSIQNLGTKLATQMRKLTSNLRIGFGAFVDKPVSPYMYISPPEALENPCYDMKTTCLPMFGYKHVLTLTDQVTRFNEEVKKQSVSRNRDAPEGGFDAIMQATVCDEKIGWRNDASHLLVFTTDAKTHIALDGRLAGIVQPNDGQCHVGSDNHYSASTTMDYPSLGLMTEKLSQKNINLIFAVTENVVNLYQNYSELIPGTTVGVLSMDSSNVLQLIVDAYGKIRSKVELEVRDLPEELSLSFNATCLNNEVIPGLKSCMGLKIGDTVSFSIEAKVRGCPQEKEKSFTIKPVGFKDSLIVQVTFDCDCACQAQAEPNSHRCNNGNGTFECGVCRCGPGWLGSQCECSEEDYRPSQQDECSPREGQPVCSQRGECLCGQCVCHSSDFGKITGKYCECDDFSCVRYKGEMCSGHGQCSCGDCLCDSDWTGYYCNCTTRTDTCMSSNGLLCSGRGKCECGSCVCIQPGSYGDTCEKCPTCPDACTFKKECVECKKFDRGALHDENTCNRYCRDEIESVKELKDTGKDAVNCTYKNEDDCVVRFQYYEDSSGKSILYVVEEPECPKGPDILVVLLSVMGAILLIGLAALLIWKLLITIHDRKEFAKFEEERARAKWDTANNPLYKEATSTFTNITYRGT
Integrin alpha-IIb/beta-3, sequence (P08514 32-887 limits assumed): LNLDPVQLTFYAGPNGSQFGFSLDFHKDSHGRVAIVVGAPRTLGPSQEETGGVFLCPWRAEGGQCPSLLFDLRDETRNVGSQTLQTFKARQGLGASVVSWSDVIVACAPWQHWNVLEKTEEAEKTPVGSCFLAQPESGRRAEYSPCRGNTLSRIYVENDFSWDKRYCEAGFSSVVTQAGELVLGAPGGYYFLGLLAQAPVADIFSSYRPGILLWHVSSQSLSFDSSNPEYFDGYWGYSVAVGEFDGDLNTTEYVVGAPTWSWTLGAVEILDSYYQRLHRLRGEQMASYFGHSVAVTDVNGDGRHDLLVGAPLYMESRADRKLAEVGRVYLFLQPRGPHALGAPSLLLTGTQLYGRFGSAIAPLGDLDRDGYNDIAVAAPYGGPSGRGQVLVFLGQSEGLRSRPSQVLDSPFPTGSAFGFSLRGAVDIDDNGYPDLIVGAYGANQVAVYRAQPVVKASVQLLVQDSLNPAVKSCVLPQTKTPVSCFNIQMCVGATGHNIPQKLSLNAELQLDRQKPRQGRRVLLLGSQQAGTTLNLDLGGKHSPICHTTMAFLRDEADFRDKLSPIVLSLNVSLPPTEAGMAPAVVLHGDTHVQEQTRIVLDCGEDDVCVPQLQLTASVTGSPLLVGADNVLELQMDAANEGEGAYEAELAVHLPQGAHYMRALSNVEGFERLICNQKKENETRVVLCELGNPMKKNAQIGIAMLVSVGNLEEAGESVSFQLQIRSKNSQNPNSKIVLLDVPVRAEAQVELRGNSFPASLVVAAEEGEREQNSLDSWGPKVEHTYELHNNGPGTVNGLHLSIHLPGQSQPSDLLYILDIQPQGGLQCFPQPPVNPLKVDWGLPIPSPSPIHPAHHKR
Integrin alpha-IIb/beta-3, sequence (P08514 891-1039 limits assumed): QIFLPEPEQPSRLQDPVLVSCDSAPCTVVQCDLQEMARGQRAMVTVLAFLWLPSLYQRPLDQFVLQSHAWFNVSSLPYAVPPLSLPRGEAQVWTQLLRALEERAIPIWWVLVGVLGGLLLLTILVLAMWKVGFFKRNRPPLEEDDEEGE

Row | SMILES | IC50 [nM]
1 | CCCCN(Cc1ccccc1)C(=O)[C@H](CC(=O)O)NC(=O)CC1CC(c2ccc(C(=N)N)cc2)=NO1 (stereo partly drawn) [(S)-N-Benzyl-N-butyl-3-{2-[3-(4-carbamimidoyl-phenyl)-4,5-dihydro-isoxazol-5-yl]-acetylamino}-succinamic acid; TFA] | 180
2 | COC(=O)CC(CN(C)C)NC(=O)CC1CC(c2ccc(C(=N)N)cc2)=NO1 (centres undefined) [3-{2-[3-(4-Carbamimidoyl-phenyl)-4,5-dihydro-isoxazol-5-yl]-acetylamino}-4-dimethylamino-butyric acid methyl ester; TFA] | 2700
3 | CC(C)COC(=O)N[C@@H](CNC(=O)CC1CC(c2ccc(C(=N)N)cc2)=NO1)C(=O)O (stereo partly drawn) [(S)-3-{2-[3-(4-Carbamimidoyl-phenyl)-4,5-dihydro-isoxazol-5-yl]-acetylamino}-2-isobutoxycarbonylamino-propionic acid; TFA] | 47
4 | CCCCOC(=O)N[C@@H](CNC(=O)CC1CC(C2CCNCC2)=NO1)C(=O)O (stereo partly drawn) [(S)-2-Butoxycarbonylamino-3-[2-(3-piperidin-4-yl-4,5-dihydro-isoxazol-5-yl)-acetylamino]-propionic acid; TFA] | 6300
5 | N=C(N)c1ccc(C2=NOC(CC(=O)N[C@H](CCc3ccccn3)CC(=O)O)C2)cc1 (stereo partly drawn) [(R)-3-{2-[3-(4-Carbamimidoyl-phenyl)-4,5-dihydro-isoxazol-5-yl]-acetylamino}-5-pyridin-2-yl-pentanoic acid; TFA] | 180
6 | CCCCOC(=O)N[C@H](CNC(=O)C[C@@H]1CC(c2ccc(C(=N)N)cc2)=NO1)C(=O)O [(R)-2-Butoxycarbonylamino-3-{2-[(S)-3-(4-carbamimidoyl-phenyl)-4,5-dihydro-isoxazol-5-yl]-acetylamino}-propionic acid; hydrochloride] | 100
7 | COC(=O)C[C@H](CN1CCCC1)NC(=O)CC1CC(c2ccc(C(=N)N)cc2)=NO1 (stereo partly drawn) [(R)-3-{2-[3-(4-Carbamimidoyl-phenyl)-4,5-dihydro-isoxazol-5-yl]-acetylamino}-4-pyrrolidin-1-yl-butyric acid methyl ester; TFA] | 3300
8 | N=C(N)c1ccc(C2=NOC(CC(=O)N[C@@H](CC(=O)O)C(=O)N3CCC4CCC(CC4)C3)C2)cc1 (stereo partly drawn) [(S)-4-(3-Aza-bicyclo[4.2.2]dec-3-yl)-3-{2-[3-(4-carbamimidoyl-phenyl)-4,5-dihydro-isoxazol-5-yl]-acetylamino}-4-oxo-butyric acid; TFA] | 210
9 | COC(=O)[C@H](CN(C)C(=O)CC1CC(c2ccc(C(=N)N)cc2)=NO1)NC(=O)OCc1ccccc1 (stereo partly drawn) [(S)-2-Benzyloxycarbonylamino-3-({2-[3-(4-carbamimidoyl-phenyl)-4,5-dihydro-isoxazol-5-yl]-acetyl}-methyl-amino)-propionic acid methyl ester; TFA] | 160
10 | N=C(N)c1ccc(C2=NOC(CC(=O)N[C@H](CCc3cccnc3)CC(=O)O)C2)cc1 (stereo partly drawn) [(R)-3-{2-[3-(4-Carbamimidoyl-phenyl)-4,5-dihydro-isoxazol-5-yl]-acetylamino}-5-pyridin-3-yl-pentanoic acid; TFA] | 360
11 | CCCCOC(=O)N[C@@H](CNC(=O)CC1CC(c2ccc(C(=N)N)cc2)=NO1)C(=O)OC (stereo partly drawn) [(S)-2-Butoxycarbonylamino-3-{2-[3-(4-carbamimidoyl-phenyl)-4,5-dihydro-isoxazol-5-yl]-acetylamino}-propionic acid methyl ester; hydrochloride] | 30
12 | CCCCOC(=O)N[C@H](CNC(=O)C[C@H]1CC(c2ccc(C(=N)N)cc2)=NO1)C(=O)O [(R)-2-Butoxycarbonylamino-3-{2-[(R)-3-(4-carbamimidoyl-phenyl)-4,5-dihydro-isoxazol-5-yl]-acetylamino}-propionic acid; hydrochloride] | 27

The next lines start with the values.

Row | IC50 [nM] | SMILES
13 | 32 | N=C(N)c1ccc(C2=NOC(CC(=O)NC[C@H](NC(=O)OCCC3CCCC3)C(=O)O)C2)cc1 (stereo partly drawn) [(S)-3-{2-[3-(4-Carbamimidoyl-phenyl)-4,5-dihydro-isoxazol-5-yl]-acetylamino}-2-(2-cyclopentyl-ethoxycarbonylamino)-propionic acid; TFA]
14 | 140 | N=C(N)c1ccc(C2=NOC(CC(=O)N[C@@H](CC(=O)O)C(=O)NC3C4CC5CC(C4)CC3C5)C2)cc1 (stereo partly drawn) [(S)-N-Adamantan-2-yl-3-{2-[3-(4-carbamimidoyl-phenyl)-4,5-dihydro-isoxazol-5-yl]-acetylamino}-succinamic acid; TFA]
15 | 67 | N=C(N)c1ccc(C2=NOC(CC(=O)NC[C@H](NC(=O)NCc3ccccc3)C(=O)O)C2)cc1 (stereo partly drawn) [(S)-2-(3-Benzyl-ureido)-3-{2-[3-(4-carbamimidoyl-phenyl)-4,5-dihydro-isoxazol-5-yl]-acetylamino}-propionic acid; TFA]
16 | 78 | N=C(N)c1ccc(C2=NOC(CC(=O)N[C@@H](CC(=O)O)Cc3ccccc3)C2)cc1 (stereo partly drawn) [(R)-3-{2-[3-(4-Carbamimidoyl-phenyl)-4,5-dihydro-isoxazol-5-yl]-acetylamino}-4-phenyl-butyric acid; TFA]
17 | 41 | CCCCCCOC(=O)N[C@@H](CNC(=O)CC1CC(c2ccc(C(=N)N)cc2)=NO1)C(=O)O (stereo partly drawn) [(S)-3-{2-[3-(4-Carbamimidoyl-phenyl)-4,5-dihydro-isoxazol-5-yl]-acetylamino}-2-hexyloxycarbonylamino-propionic acid; TFA]
18 | 32 | N=C(N)c1ccc(C2=NOC(CC(=O)NC[C@H](NC(=O)OCc3ccccc3Cl)C(=O)O)C2)cc1 (stereo partly drawn) [(S)-3-{2-[3-(4-Carbamimidoyl-phenyl)-4,5-dihydro-isoxazol-5-yl]-acetylamino}-2-(2-chloro-benzyloxycarbonylamino)-propionic acid; TFA]
19 | 36 | N=C(N)c1ccc(C2=NOC(CC(=O)NC[C@H](NC(=O)OCCC3CC3)C(=O)O)C2)cc1 (stereo partly drawn) [(S)-3-{2-[3-(4-Carbamimidoyl-phenyl)-4,5-dihydro-isoxazol-5-yl]-acetylamino}-2-(2-cyclopropyl-ethoxycarbonylamino)-propionic acid; TFA]
20 | 44 | N=C(N)c1ccc(C2=NOC(CC(=O)NC[C@H](NC(=O)OCc3ccc(Br)cc3)C(=O)O)C2)cc1 (stereo partly drawn) [(S)-2-(4-Bromo-benzyloxycarbonylamino)-3-{2-[3-(4-carbamimidoyl-phenyl)-4,5-dihydro-isoxazol-5-yl]-acetylamino}-propionic acid; TFA]
21 | 91 | N=C(N)c1ccc(C2=NOC(CC(=O)NC[C@H](N)C(=O)O)C2)cc1 (stereo partly drawn) [(S)-2-Amino-3-{2-[3-(4-carbamimidoyl-phenyl)-4,5-dihydro-isoxazol-5-yl]-acetylamino}-propionic acid; TFA]
22 | 31 | CCCCS(=O)(=O)N[C@@H](CNC(=O)CC1CC(c2ccc(C(=N)N)cc2)=NO1)C(=O)O (stereo partly drawn) [(S)-2-(Butane-1-sulfonylamino)-3-{2-[3-(4-carbamimidoyl-phenyl)-4,5-dihydro-isoxazol-5-yl]-acetylamino}-propionic acid; TFA]
23 | 44 | C=CCCOC(=O)N[C@@H](CNC(=O)CC1CC(c2ccc(C(=N)N)cc2)=NO1)C(=O)O (stereo partly drawn) [(S)-2-But-3-enyloxycarbonylamino-3-{2-[3-(4-carbamimidoyl-phenyl)-4,5-dihydro-isoxazol-5-yl]-acetylamino}-propionic acid; TFA]
24 | 61 | N=C(N)c1ccc(C2=NOC(CC(=O)NC[C@H](NC(=O)c3ccc4ccccc4c3)C(=O)O)C2)cc1 (stereo partly drawn) [(S)-3-{2-[3-(4-Carbamimidoyl-phenyl)-4,5-dihydro-isoxazol-5-yl]-acetylamino}-2-[(naphthalene-2-carbonyl)-amino]-propionic acid; TFA]
